Results on 11 molecules are retold here after ChEMBL document CHEMBL1201862, “PubChem BioAssay data set” (2004).

Each structure is given as a SMILES string.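 Growth conditions: 96-well plates. Treatment: test compound, 48 hours, 5 concentrations. Analysis: linear interpolation between bracketing concentrations; unreached endpoints set to highest concentration. GI50 = concentration required for 50% inhibition of growth.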 The source made the active and inactive calls. Rule as the data show it: active = GI50 up to about 1.1 µM and inactive = higher.

Some test systems named below: A549; BT-549; CAKI-1; CCRF-CEM; EKVX; HCT-116; HCT-15; HOP-62; MOLT-4; Malme-3M; NCI-H460; NCI/ADR-RES; OVCAR-3; OVCAR-4; RPMI-8226; SF-295; SF-539; SNB-75; TK-10; RXF 393.
Experiment in all cases: inhibition of tumour cell growth, NCI panel, 48 h

As to `Cc1ncc([N+](=O)[O-])n1CCNC(=O)CCn1ccnc1[N+](=O)[O-]`, the GI50 in the assay with A549, in the assay with BT-549, with CAKI-1, in the assay with CCRF-CEM, with EKVX and in the assay with HCT-116 was > 100 µM (inactive) in each case. Moreover, the GI50 in the assay with HCT-15 is above 100 µM; in the assay on HOP-62 it was > 100 µM (inactive); in the assay on MOLT-4, > 100 µM (inactive); in the assay on Malme-3M, > 100 µM (inactive); in the assay with NCI-H460, > 100 µM (inactive); in the assay on NCI/ADR-RES, > 100 µM (inactive). Besides, the GI50 in the assay on OVCAR-3, in the assay with OVCAR-4, with RPMI-8226, in the assay on SF-295, with SF-539 and in the assay with SNB-75 was > 100 µM (inactive) throughout. In addition, in the assay with TK-10, the GI50 was > 100 µM (inactive).
Take `CC(C)CCc1c(Cl)nc(Cl)nc1Cl`: the GI50 is 21.7 µM (inactive) in the assay on A549; 4.1 µM (inactive) in the assay on BT-549; 0.33 µM (active) in the assay on CCRF-CEM; 26.2 µM (inactive) in the assay on EKVX; 2.48 µM (inactive) in the assay with HCT-116; 3.47 µM with HCT-15. Also, the GI50 is 16.4 µM (inactive) in the assay on HOP-62; 0.783 µM (active) in the assay with MOLT-4; 6.12 µM (inactive) in the assay on Malme-3M; 15.5 µM (inactive) with NCI-H460; 28.2 µM (inactive) in the assay on NCI/ADR-RES; 11.9 µM (inactive) in the assay with OVCAR-3. The GI50 in the assay with OVCAR-4 is 19.7 µM (inactive); in the assay on RPMI-8226, 30.7 µM (inactive); with RXF 393 it was 3.89 µM (inactive); with SF-295 it was 18.1 µM (inactive); with SF-539, 24.8 µM (inactive); in the assay on SNB-75 it was 10 µM (inactive). The GI50 in the assay with TK-10 is 21.1 µM (inactive).
Regarding `C=C(Nc1nc2ccc(C)cc2s1)C(=O)C(CC)C(=O)C(CC)CC1C(=O)NC(=O)NC1=O` (configuration not stated), the GI50 in the assay on A549, in the assay on BT-549, with CAKI-1, in the assay on CCRF-CEM, in the assay with EKVX and in the assay on HCT-116 was > 100 µM (inactive) throughout. The GI50 is above 100 µM in the assay with HCT-15; 32 µM (inactive) in the assay on HOP-62; > 100 µM (inactive) with MOLT-4; > 100 µM (inactive) in the assay with NCI-H460; > 100 µM (inactive) in the assay with NCI/ADR-RES; > 100 µM (inactive) with OVCAR-3. Moreover, the GI50 in the assay with OVCAR-4, in the assay with RXF 393, in the assay on SF-295, in the assay on SF-539, in the assay on SNB-75 and with TK-10 was > 100 µM (inactive) throughout.
Regarding `COc1ccc(Oc2nc3c(N)cc(C(F)(F)F)cc3nc2-c2ccccc2)cc1`, the GI50 in the assay on BT-549 was 47.1 µM (inactive); in the assay on CAKI-1 it was 21.8 µM (inactive); in the assay with CCRF-CEM, 38.4 µM (inactive); in the assay on EKVX, 12.8 µM (inactive); in the assay on HCT-116 it was 27.7 µM (inactive); in the assay with HCT-15, 31.6 µM. In addition, the GI50 with HOP-62 was 22.8 µM (inactive); in the assay with MOLT-4, 42.2 µM (inactive); in the assay on NCI-H460, 21.8 µM (inactive); in the assay with NCI/ADR-RES, 27.2 µM (inactive); with OVCAR-4 it was > 100 µM (inactive); in the assay with RPMI-8226, 63 µM (inactive). Besides, the GI50 is 11.6 µM (inactive) with RXF 393; 18.5 µM (inactive) in the assay with SF-295; 23.5 µM (inactive) with SF-539; 17.7 µM (inactive) in the assay with SNB-75; 38.5 µM (inactive) with TK-10.
Turning to `C1CCNCC1.S=C(S)N1CCCCC1`, the GI50 in the assay with A549 was 0.632 µM (active); with BT-549 it was 406 µM (inactive); with CAKI-1, 33.4 µM (inactive); in the assay with EKVX, 111 µM (inactive); in the assay with HCT-116, 14.1 µM (inactive); with HCT-15, 88.9 µM. The GI50 in the assay on HOP-62 was 129 µM (inactive); in the assay with Malme-3M it was 19.1 µM (inactive); in the assay on NCI/ADR-RES, 19.3 µM (inactive); with OVCAR-3 it was 71 µM (inactive); in the assay with RPMI-8226 it was 3.75 µM (inactive); in the assay on RXF 393, 190 µM (inactive). For the same molecule, the GI50 in the assay with SF-295 is 99.8 µM (inactive); in the assay with SF-539, 80.7 µM (inactive); in the assay with SNB-75, 61.2 µM (inactive); in the assay with TK-10, 135 µM (inactive).
In the case of `COc1ccc(C(Nc2ccccn2)c2cc(C(C)(C)C)cc(C(C)(C)C)c2O)cc1` (configuration not stated), the GI50 in the assay on A549 was 30 µM (inactive); in the assay with BT-549 it was 17 µM (inactive); in the assay on CAKI-1 it was 39.4 µM (inactive); in the assay on EKVX, 36 µM (inactive); in the assay on HCT-116, 12.6 µM (inactive); with HCT-15 it was 22.3 µM. Also, the GI50 in the assay on HOP-62 is 16.9 µM (inactive); in the assay with Malme-3M, 10.4 µM (inactive); in the assay with NCI-H460, 16.7 µM (inactive); in the assay on NCI/ADR-RES, 16 µM (inactive); with OVCAR-3, 11.4 µM (inactive); in the assay on OVCAR-4 it was 34.4 µM (inactive). Further, the GI50 with RPMI-8226 was 23.1 µM (inactive); with RXF 393, 7.74 µM (inactive); in the assay on SF-295, 12.4 µM (inactive); in the assay on SF-539 it was 48.1 µM (inactive); in the assay with SNB-75, 13.8 µM (inactive); in the assay on TK-10 it was 49.7 µM (inactive).
As to `NC(c1ccccc1)(C(F)(F)F)P1(=O)OC(=O)c2ccccc2O1` (configuration not stated), the GI50 with A549 was > 100 µM (inactive); in the assay on BT-549, > 100 µM (inactive); with CAKI-1, > 100 µM (inactive); in the assay on EKVX, > 100 µM (inactive); with HCT-116, > 100 µM (inactive); in the assay with HCT-15 it was above 100 µM. The GI50 is > 100 µM (inactive) in the assay on HOP-62; 48.8 µM (inactive) in the assay with MOLT-4; > 100 µM (inactive) in the assay with NCI-H460; > 100 µM (inactive) in the assay on NCI/ADR-RES; > 100 µM (inactive) in the assay on OVCAR-3; > 100 µM (inactive) in the assay on OVCAR-4. Further, the GI50 in the assay with RPMI-8226, in the assay on RXF 393, with SF-295, in the assay with SF-539, in the assay on SNB-75 and in the assay with TK-10 was > 100 µM (inactive) throughout.
As to `Cc1cc(=O)nc(S(=O)(=O)NC(=S)Nc2ccc(Br)cc2)[nH]1`, the GI50 in the assay on BT-549 is > 100 µM (inactive); in the assay on CAKI-1, 65.6 µM (inactive); with EKVX it was 42.1 µM (inactive); with HCT-15, 75.9 µM; in the assay with HOP-62, > 100 µM (inactive); in the assay on MOLT-4, 36 µM (inactive). For the same molecule, the GI50 with Malme-3M is > 100 µM (inactive); in the assay with NCI-H460, > 100 µM (inactive); with NCI/ADR-RES, > 100 µM (inactive); in the assay with OVCAR-3, > 100 µM (inactive); with OVCAR-4, 93.5 µM (inactive); in the assay on RPMI-8226, 33.4 µM (inactive). Also, the GI50 in the assay with RXF 393 is 20.5 µM (inactive); with SF-295, > 100 µM (inactive); in the assay on SF-539 it was > 100 µM (inactive); with SNB-75, > 100 µM (inactive); in the assay with TK-10, > 100 µM (inactive).
For `Cc1nc2c(n1CCCl)C(=O)c1ccccc1C2=O`, the GI50 is 33.7 µM (inactive) in the assay with A549; 20.1 µM (inactive) in the assay on BT-549; 22.6 µM (inactive) in the assay on CCRF-CEM; 53.8 µM (inactive) in the assay with EKVX; 16.1 µM (inactive) in the assay on HCT-116; 7.87 µM in the assay on HCT-15. Further, the GI50 in the assay with HOP-62 is 19.5 µM (inactive); in the assay with MOLT-4, 12.9 µM (inactive); with Malme-3M, 5.82 µM (inactive); in the assay on NCI-H460, 14.9 µM (inactive); in the assay with NCI/ADR-RES, 16.2 µM (inactive); in the assay on OVCAR-3, 25.4 µM (inactive). For the same molecule, the GI50 in the assay with OVCAR-4 was 14.8 µM (inactive); in the assay on RPMI-8226, 58.6 µM (inactive); in the assay on RXF 393, 19.5 µM (inactive); in the assay on SF-295 it was 21.4 µM (inactive); with SF-539 it was 31.4 µM (inactive); in the assay on SNB-75 it was 14.5 µM (inactive). For the same molecule, in the assay on TK-10, the GI50 is 26.7 µM (inactive).
In the case of `CC(C)(C)OC(=O)N(O)[C@@H]1CC[C@H](n2cnc3c(N)ncnc32)C1`, the GI50 in the assay on A549 is > 100 µM (inactive); in the assay with BT-549 it was > 100 µM (inactive); in the assay with CCRF-CEM, > 100 µM (inactive); in the assay with EKVX, > 100 µM (inactive); in the assay with HCT-116, > 100 µM (inactive); in the assay on HCT-15, above 100 µM. In addition, the GI50 in the assay on HOP-62, with MOLT-4, in the assay with Malme-3M, in the assay on NCI-H460, with NCI/ADR-RES and with OVCAR-3 was > 100 µM (inactive) each time. Moreover, the GI50 in the assay with OVCAR-4, with RPMI-8226, in the assay on RXF 393, with SF-295, in the assay on SF-539 and in the assay on SNB-75 was > 100 µM (inactive) in each case. Besides, the GI50 with TK-10 is > 100 µM (inactive).
For `NNC(=O)COc1nc(-c2cccs2)nc2ccc(I)cc12`, the GI50 in the assay on A549 is 18.7 µM (inactive); with BT-549 it was 15.3 µM (inactive); in the assay with CAKI-1, 17.6 µM (inactive); in the assay with EKVX it was 18.9 µM (inactive); in the assay on HCT-116, 16.6 µM (inactive); in the assay with HCT-15, 20.7 µM. Also, the GI50 in the assay with HOP-62 is 27.3 µM (inactive); with MOLT-4 it was 25.7 µM (inactive); in the assay on Malme-3M it was 17 µM (inactive); in the assay with NCI-H460, 21.8 µM (inactive); in the assay with NCI/ADR-RES, 28.1 µM (inactive); with OVCAR-3 it was 15.9 µM (inactive). The GI50 in the assay on OVCAR-4 is 21.4 µM (inactive); in the assay with RXF 393, 34.3 µM (inactive); in the assay on SF-295, 28.8 µM (inactive); with SNB-75, 22.7 µM (inactive); in the assay with TK-10, 18.2 µM (inactive).
